Patent US20120053182A1, “METHODS OF ALLEVIATING OR TREATING SIGNS AND/OR SYMPTOMS ASSOCIATED WITH MODERATE TO SEVERE PARKINSON'S DISEASE” (SCHERING CORPORATION, priority 2009, published 2012)
Read-outs that look alike come from different tables or passages of the source.

How the values were obtained:
[1] = Pharmacokinetics after oral administration to healthy human volunteers; type: in vivo; conditions: composition providing about 5 mg, serum; for AUC: human, po, 5 mg, healthy human volunteers
[2] = tested on: patients suffering from Parkinson's disease; assay: Clinical trial in patients with moderate to severe Parkinson's disease receiving L-dopa therapy; type: in vivo, human
Description: A clinical trial was carried out using 253 patients suffering from Parkinson's disease and receiving L-dopa therapy.
These patients were continued on their L-dopa therapy and randomized to receive in addition either a placebo (n=49), a composition administered orally BID in an amount providing 1 mg of the compound of Formula I (n=49), a composition administered orally BID in an amount providing 2 mg of the compound of Formula I (n=49), a composition administered orally BID in an amount providing 5 mg of the compound of Formula I (n=49), or a composition administered orally BID in an amount providing 10 mg of the compound of Formula I (n=57). This treatment was continued for 12 weeks while the patients kept a diary recording the “Off-time” periods, “On-time” periods (recording whether “On-time” was accompanied by dyskinesia or troubling dyskinesia) and their total amount of sleep time. These patients were also interviewed clinically and were evaluated as well in accordance with the UPDRS rating scale, as well as for when, and the duration of, sleep attacks experienced during the study. Blood chemistry was followed clinically at regular intervals.
Moreover, with reference to FIG. 3, assessment of patients was made using the Unified Parkinson's Disease Rating Scale (UPDRS) following several weeks of administration. […] With reference to FIG. 3, for example, UPDRS, part III scores were improved by showing a decrease of at least about 3 points below the baseline score at the start of the study.

[3] = Bioavailability by age or sex in healthy human volunteers; type: in vivo; conditions: composition used in the patient study
A2a receptors = target: T1, A2a receptors (Homo sapiens, UniProt P29274); assay: PET scan receptor site occupancy study in healthy human volunteers; type: in vivo
T1 construct: PET scans of a human brain were obtained; from tissue; host or cells: brain of living healthy human volunteers (in vivo PET)
Description: In a separate study with healthy human volunteers, and with reference to FIG. 5, PET scans of a human brain were obtained after IV administration to a subject of a composition intravenous administration of the compound of Formula II which had been labeled with ^11C-radio-isotope and then after an interval subsequent intravenous administered the compound of Formula I.
This study was carried out using 18 subjects. Capsules containing a composition providing the compound of Formula I (unlabelled) in amounts of 10, 50, or 200 mg were also administered to a subset of test subjects prior to injection of the radio-labeled compound of Formula II. Using the information obtained from the PET scan regarding the extent, location, and inhibition of radiotracer binding permitted calculation of binding potentials for the compound of Formula I. The test subjects were also evaluated for plasma levels of the compound of Formula I during the study. […] These studies also indicate that the compound of Formula I has a selectivity for the A2a receptor site of 20,000:1 relative to binding at A1, A2b, and A3 receptor sites. This study is consistent with a therapeutic level of plasma concentration being provided by administering a composition orally which provides a human subject to whom it is administered with from at least about 2 mg of the compound of Formula I to about 10 mg of the compound of Formula I and preferably 5 mg of the compound of Formula I. It is believed that BID dosing of a composition providing from about 5 mg to about 50 mg of the compound of Formula I will provide at least about 50% receptor site occupancy for at least about 12 hours/day in at least about 80% of the human population and at least about 80% receptor site occupancy for at least about 18 hours/day in at least about 75% of the population.

[4] = tested on: akathisia induced by administration of Haldol; assay: Haldol-induced akathisia in healthy volunteers; type: in vivo, human; conditions: composition providing about 10 mg, FIG. 4
Text: It is believed that a composition which provides an effective amount of the compound of Formula I will also prevent feelings of restlessness, of example, Haldol-induced akathesia.

[5] = at least about 2 mg BID oral, 12 weeks, with L-dopa, patient diary

T1 sequence (P29274 whole entry): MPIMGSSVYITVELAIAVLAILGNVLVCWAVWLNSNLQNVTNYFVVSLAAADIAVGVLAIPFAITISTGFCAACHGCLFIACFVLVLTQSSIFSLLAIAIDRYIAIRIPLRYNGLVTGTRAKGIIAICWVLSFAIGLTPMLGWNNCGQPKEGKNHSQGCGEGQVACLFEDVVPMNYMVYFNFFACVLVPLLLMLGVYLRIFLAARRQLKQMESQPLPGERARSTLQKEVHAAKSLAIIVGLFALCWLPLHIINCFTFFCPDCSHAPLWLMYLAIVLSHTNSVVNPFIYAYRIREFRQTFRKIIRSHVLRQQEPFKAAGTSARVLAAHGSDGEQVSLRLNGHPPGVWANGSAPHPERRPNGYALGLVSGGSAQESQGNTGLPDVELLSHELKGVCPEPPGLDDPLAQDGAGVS

Cmax ([1]; average across healthy human volunteers): 112 to 130 ng/mL | AUC ([1]; AUC to time serum level drops below detectable limit, read-out: AUC(tf)): 336 to 457 ng·h/mL | AUC ([1]; read-out: AUC values measured from t=0 to 1 hr.): 352 to 478 ng·h/mL | UPDRS part IV scores ([2]; amount sufficient to maintain steady state serum level of at least about 50 ng/ml): not accompanied by an increase | proportion of "On-time" with dyskinesia or other motor complications ([2]; at least about 2 mg BID oral, 12 weeks, with L-dopa): no rise | differences in bioavailability (AUC or Cmax) between groups divided by age or sex [3]: no statistically significant differences | receptor site occupancy (A2a receptors; BID dosing about 5 mg to about 50 mg, for at least about 12 hours/day in at least about 80% of the human population): at least 50% | receptor site occupancy (A2a receptors; BID dosing about 5 mg to about 50 mg, for at least about 18 hours/day in at least about 75% of the population): at least 80% | receptor occupancy at 0.05 µg/mL (A2a receptors; human, plasma concentrations in excess of about 50 ng/ml, believed to be Emax): ~90% | plasma concentration at 50% receptor site occupancy (A2a receptors; on average, PET, humans): 6 ng/mL | receptor site occupancy (A2a receptors; plasma concentration levels exceeding about 25 ng/mL in humans): high level of receptor site occupancy
Compound: COCCOc1ccc(N2CCN(CCN3N=CC4c5nc(-c6ccco6)nn5C(N)=NC43)CC2)cc1 (centres unmarked) [compound of Formula I]
reports of common adverse events: Parkinsonism; somnolence; dyskinesia ([2]; 1, 2, 5 or 10 mg BID oral, 12 weeks, versus placebo group): no more frequency than was reported in the placebo group | decrease of UPDRS part III score below baseline ([2]; amount sufficient to maintain steady state serum level of at least about 50 ng/ml, FIG. 3, 2 hours post dose): at least 3 points | periods of "Off-time" [2, 5]: decrease | periods of "On-time" [2, 5]: improvement | average daily patient "Off-time" periods ([2]; at least about 5 mg BID oral): decrease | average daily patient "On-time" periods ([2]; at least about 5 mg BID oral): increase | objectional side effects, for example, dyskinesia, somnolence, or insomnia ([2]; at least about 5 mg BID oral): not accompanied by objectional side effects | UPDRS score ([2]; at least about 5 mg BID oral, throughout the course of the study): improvement in UPDRS score which is maintained throughout the course of the study | induction of sleep attacks ([2]; effective amount, patient assessment by clinicians): not associated with induction of sleep attacks | patient sleep patterns (total daily sleep time) ([2]; from about 2 mg BID to about 10 mg BID, FIG. 2): does not significantly adversely effect patient sleep patterns | brain distribution by PET scan (A2a receptors; human brain, 11C-labelled compound of Formula II as radiotracer): high concentrations of the compound of Formula I in regions of the brain known to contain high levels of A2a receptors | suppression of Haldol-induced akathisia [4]: successful in suppressing akathisia
